Read-outs that look alike come from different tables or passages of the source. Each block holds one compound with its values, some of them ahead of it.
Legend:
[1] = molecular target: purified mushroom tyrosinase (MT) (Agaricus bisporus, UniProt C7FF04); assay: DOPA oxidation (dopachrome, 475 nm) assay with partially purified commercial MT; assay type: biochemical
Method: (§1) Each one mL assay contained a final concentration of 100 mM sodium phosphate (pH 6.5) and 2 mM DOPA. Crude, commercial or partially purified tyrosinase was added to initiate the reaction. […] Rates were determined from the linear portion of the absorbance vs. time curves. Crude enzyme was use at a concentration of 0.1 units (8.4 μg protein) per mL in the assay and assayed in the presence of 0.1% SDS. Commercial tyrosinase was used at a concentration of 0.038 units (3.3 μg protein) per mL in the assay. The purified enzyme was used at a concentration of 0.0067 units (0.58 μg protein) per mL in the assay.
(§2) Various amounts of inhibitors were added into assays to determine a range of inhibitors needed to encompass the IC50 value. Then assays were repeated within this range of inhibitor concentrations. Rates were determined as above. […] For the crude and commercial MT, experiments were repeated at least twice and the average IC50 value reported. Because of the limited amount of purified tyrosinase, not all experiments could be repeated twice. In experiments requiring DMSO to dissolve the inhibitor, control assays contained the assay mixture with DMSO but minus inhibitor. Final DMSO concentrations were 5% or less in the assays.

[2] = system: crude mushroom tyrosinase (MT) extract; assay: DOPA oxidation (dopachrome, 475 nm) assay with crude MT extract, with 0.1% SDS; assay type: biochemical, White button mushrooms
Method: (§3) White button mushrooms were purchased from local stores and blended in 100 mM sodium phosphate (pH 6.0) containing 1 mM EDTA, 1 mM PMSF, 5 mM ascorbic acid and 1 M sucrose. The homogenates were filtered and stored at −15 °C in small aliquots. Commercial mushroom tyrosinase. Mushroom tyrosinase was dissolved in the above buffer without ascorbic acid at 2 mg dry weight/mL and stored at 5 °C in small aliquots.
as §1, §2

[3] = system: mushroom tyrosinase (crude, commercial and purified MT); assay: DOPA oxidation assay, statements pooled over crude, commercial and purified MT; assay type: biochemical
Method: Each one mL assay contained a final concentration of 100 mM sodium phosphate (pH 6.5) and 2 mM DOPA. Crude, commercial or partially purified tyrosinase was added to initiate the reaction. Oxidation of DOPA into dopachrome was monitored at 475 nm. One unit of activity was defined as 1 μmole dopachrome formed per min per ml enzyme using an extinction coefficient of 3600 M^−1 cm^−1. Rates were determined from the linear portion of the absorbance vs. time curves. Crude enzyme was use at a concentration of 0.1 units (8.4 μg protein) per mL in the assay and assayed in the presence of 0.1% SDS. Commercial tyrosinase was used at a concentration of 0.038 units (3.3 μg protein) per mL in the assay. The purified enzyme was used at a concentration of 0.0067 units (0.58 μg protein) per mL in the assay.
Various amounts of inhibitors were added into assays to determine a range of inhibitors needed to encompass the IC50 value. Then assays were repeated within this range of inhibitor concentrations. Rates were determined as above. […] The concentration of inhibitor needed to inhibit 50% of the tyrosinase activity was extrapolated from % activity vs. [inhibitor] curves. For some inhibitors, we also used Statistical Data Analysis Software (SDAS, version 2008A) using an exponential equation to obtain a best fit curve and then to calculate IC50 values. For the crude and commercial MT, experiments were repeated at least twice and the average IC50 value reported. Because of the limited amount of purified tyrosinase, not all experiments could be repeated twice. In experiments requiring DMSO to dissolve the inhibitor, control assays contained the assay mixture with DMSO but minus inhibitor. Final DMSO concentrations were 5% or less in the assays.

[4] = molecular target: commercial mushroom tyrosinase (MT) (Agaricus bisporus, UniProt C7FF04); assay: DOPA oxidation (dopachrome, 475 nm) assay with commercial MT; assay type: biochemical; details: for IC50: read-out: IC50 Commer. MT
Chain of commercial mushroom tyrosinase (MT) (C7FF04 1-392): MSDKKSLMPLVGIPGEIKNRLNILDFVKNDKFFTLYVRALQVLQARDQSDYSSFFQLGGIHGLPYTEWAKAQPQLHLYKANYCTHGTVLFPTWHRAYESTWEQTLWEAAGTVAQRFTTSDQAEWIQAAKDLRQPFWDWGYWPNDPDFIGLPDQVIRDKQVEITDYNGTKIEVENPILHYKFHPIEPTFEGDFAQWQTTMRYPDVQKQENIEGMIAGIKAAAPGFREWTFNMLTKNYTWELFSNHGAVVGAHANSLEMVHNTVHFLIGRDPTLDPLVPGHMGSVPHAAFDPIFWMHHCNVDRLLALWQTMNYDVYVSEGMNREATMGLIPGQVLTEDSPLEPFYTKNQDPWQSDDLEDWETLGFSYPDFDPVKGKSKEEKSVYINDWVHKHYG
Chain of commercial mushroom tyrosinase (MT) (G1K3P4 entry or part of it, further chain): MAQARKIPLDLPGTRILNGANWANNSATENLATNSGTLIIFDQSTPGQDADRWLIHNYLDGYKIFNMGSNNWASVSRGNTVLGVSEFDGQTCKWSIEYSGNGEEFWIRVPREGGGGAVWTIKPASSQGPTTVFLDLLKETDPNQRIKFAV
Method: Commercial mushroom tyrosinase was purchased from Worthington Biochemical Corp. (Lakewood, NJ, USA). Substrates and inhibitors were obtained from Sigma-Aldrich (St. Louis, MO, USA). Anisaldehyde was obtained form J.T. Baker Chemical Co. (Phillipsburg, NJ, USA). Dimethyl sulfoxide (DMSO) was reagent grade from Sigma-Aldrich (St. Louis, MO, USA).
as §3, §1, §2

[5] = molecular target: mushroom tyrosinase; details: cited from earlier work

Chain of purified mushroom tyrosinase (MT) (C7FF04 1-392): as the sequence (C7FF04 1-392) above
Chain of purified mushroom tyrosinase (MT) (G1K3P4 entry or part of it, further chain): as the sequence (G1K3P4 entry or part of it, further chain) above

Compound: CSC [dimethyl sulfide]
Inhibition of purified MT ([1]; to 500 μM): NI to 500 μM
Inhibition of crude MT ([2]; to 500 μM): NI to 500 μM
Inhibition of MT ([3]; up to 500 μM, any of the MT samples): Little to no inhibition
Inhibition of commercial MT ([4]; to 500 μM): NI to 500 μM

Compound: 4,4’-dihydroxy-biphenyl [biphenol]
Concentration beyond which purified MT activity increases ([1]; 2 mM DOPA): > 100 µM
IC50 ([1]; 2 mM DOPA, pH 6.5): 67 µM
IC50 ([2]; 2 mM DOPA, pH 6.5, 0.1% SDS): 50 µM
IC50 ([4]; 2 mM DOPA, pH 6.5): 10 µM
IC50 ([5]; tyrosine as substrate, read-out: Reported IC50 Values): 1.9 µM

Compound: COc1ccc(C=O)cc1 [anisaldehyde]
IC50 ([2]; 2 mM DOPA, pH 6.5, 0.1% SDS): 1000 µM
IC50 ([3]; 2 mM DOPA, read-out: IC50, range between crude, commercial and purified MT): 1000 to 1800 µM
IC50 ([5]; read-out: Reported IC50 Values): 160 µM

Compound: O=S(=O)([O-])[O-].[Zn+2] [ZnSO4]
Inhibition of purified MT ([1]; at 1 mM): none@1 mM
Inhibition of crude MT ([2]; at 1 mM): none@1 mM
Inhibition of MT ([3]; concentrations up to 1 mM): no inhibition
Inhibition of commercial MT ([4]; at 1 mM): none@1 mM
IC50 ([5]; assay coupling DOPA oxidation to thymol blue coloration, read-out: Reported IC50 Values): 50 µM

Compound: COc1ccc(C(=O)O)cc1 [anisic acid]
IC50 ([5]; read-out: Reported IC50 value): 680 µM

Compound: [Cl-].[Na+] [NaCl]
IC50 ([2]; 2 mM DOPA, pH 6.5, 0.1% SDS): 65000 µM
IC50 ([5]; DOPA as substrate, read-out: Reported IC50 Values): 25000 µM

Compound: Oc1ccc(O)cc1 [hydroquinone]
Effect on purified MT activity [1]: activates ^f
Concentration up to which crude MT is activated ([2]; 2 mM DOPA): ≤ 100 µM
Effect on crude MT activity ([2]; 2 mM DOPA): activates ^d
Effect on commercial MT activity [4]: activates ^e
IC50 ([5]; read-out: Reported IC50 Values): 26 µM

Compound: N.N.S.S.[S]=[Mo]=[S] [ATTM, ammonium tetrathiomolybdate]
IC50 ([2]; 2 mM DOPA, pH 6.5, 0.1% SDS): 3.4 µM
IC50 ([4]; 2 mM DOPA, pH 6.5): 3.3 µM
IC50 ([5]; read-out: Reported IC50 Values): 2 µM

Second part, led by results:

Inhibition of purified MT ([1]; to 2 mM): NI to 2 mM
Inhibition of crude MT ([2]; to 2 mM): NI to 2 mM
Inhibition of tyrosinase ([3]; up to 2 mM): relatively little inhibition
Inhibition of commercial MT ([4]; to 2 mM): NI to 2 mM
Compound: CS(C)(=O)=O [dimethyl sulfone]

IC50 ([2]; 2 mM DOPA, pH 6.5, 0.1% SDS): 0.39 µM
Compound: O=c1cccccc1O [tropolone]
IC50 ([5]; read-out: Reported IC50 Values): 0.4 µM

IC50 ([2]; 2 mM DOPA, pH 6.5, 0.1% SDS): 46 µM
Compound: Cn1cc[nH]c1=S [methimazole]
IC50 ([5]; read-out: Reported IC50 Values): 200 µM

IC50 ([2]; 2 mM DOPA, pH 6.5, 0.1% SDS): 36 µM
Compound: O=c1cc(CO)occ1O [kojic acid]

IC50 ([2]; 2 mM DOPA, pH 6.5, 0.1% SDS): 625 µM
Compound: O=C(CCc1ccc(O)cc1)c1c(O)cc(O)cc1O[C@@H]1O[C@H](CO)[C@@H](O)[C@H](O)[C@H]1O [phloridzin]
IC50 ([5]; read-out: Reported IC50 Values): 110 µM

IC50 ([2]; 2 mM DOPA, pH 6.5, 0.1% SDS): 70 µM
Compound: O=c1ccc2cc(O)c(O)cc2o1 [esculetin]

IC50 Purified MT ([1]; 2 mM DOPA, pH 6.5): >20 mg/mL ^i
IC50 Crude MT ([2]; 2 mM DOPA, pH 6.5, 0.1% SDS): >10 mg/mL ^g
IC50 Commer. MT ([4]; 2 mM DOPA, pH 6.5): >20 mg/mL ^h
Compound: lysozyme
Reported inhibition of MT ([5]; MT and lysozyme incubated for one hour before assaying): 30%
Reported IC50 value [5]: 4.6 µg/mL
Reported inhibition of MT ([5]; mixing MT with lysozyme just before assaying): 8%
IC50 ([5]; read-out: Reported IC50 Values): 0.32 µM

IC50 ([2]; 2 mM DOPA, pH 6.5, 0.1% SDS): 5.8 µM
Compound: CCCCCCc1ccc(O)cc1O [4-HR, 4-hexylresorcinol]
IC50 ([5]; read-out: Reported IC50 Values): 0.85 µM

From paper PMC2769143, “Variations in IC50 Values with Purity of Mushroom Tyrosinase” (International Journal of Molecular Sciences, 2009)
